Among the data in patent US20250154163A1, “Pyrimidinone-Containing 17-Beta-Hydroxysteroid Dehydrogenase Type 13 Inhibitors” (ENANTA PHARMACEUTICALS, INC., priority 2023, published 2025) are IC50 values, retold here.

Where only a bound is given, the exact number is not on record here.

The target in this test is T1, human HSD17β13 (stable HEK293T cell line overexpressing human HSD17β13) (Homo sapiens, UniProt Q7Z5P4).
T1 construct: expressed in transfected cells
T1 sequence (Q7Z5P4 20-300): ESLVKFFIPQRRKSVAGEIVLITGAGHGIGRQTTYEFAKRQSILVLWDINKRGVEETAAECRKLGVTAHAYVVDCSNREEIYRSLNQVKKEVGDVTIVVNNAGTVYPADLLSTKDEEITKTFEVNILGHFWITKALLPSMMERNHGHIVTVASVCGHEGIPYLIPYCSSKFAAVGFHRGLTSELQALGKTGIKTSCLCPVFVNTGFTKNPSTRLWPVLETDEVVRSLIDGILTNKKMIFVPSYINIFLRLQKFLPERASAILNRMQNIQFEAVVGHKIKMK
Nature of the test: HSD17β13 inhibitor cell-based screening assay (conversion of estradiol-d2 to estrone-d2 by RF-MS). The conditions noted are these: conversion of estradiol-d2 to estrone-d2 after 24 hours. On the procedure:
The purpose of this cell-based assay is to determine the cellular efficacy (IC50) of HSD17β13 inhibitors in a stable HEK293 T cell line overexpressing human HSD17β13. The assay measures by Rapid Fire mass-spectrometry (RF-MS) the conversion of estradiol-d2 to estrone-d2. Cytotoxicity was also assessed via luminescent signal generated by the ATPlite viability assay reagent. To screen compounds for HSD17013 inhibition, black 384-well plates were seeded with 1000× concentration of compounds in a 9-point 1:3 dilution curve (final top concentration of 10 μM) as well as 1000× concentration of 17β-estradiol-d2 (5 μM final concentration) added to all wells. HEK293T cells stably overexpressing human HSD17013 and the parent HEK293T cell lines were then seeded in the plates on top of the compounds and substrate in MEM media containing 1% charcoal/dextran-treated FBS. Supernatant is collected and immediately frozen after 24 hours of incubation, and conversion of estradiol-d2 to estrone-d2 is measured at Pure Honey by RF-MS. The remaining media in the plate was removed from the wells and replaced with ATPlite viability assay reagent. Luminescent signal from the ATPlite reagent was measured on the Envision plate reader. 10 μL of 10 mM compounds stocks (1000×) dissolved in DMSO were pipetted into the appropriate wells on the 384 LDV plate (Labcyte; cat. no.: LP-0200) and the appropriate volumes of DMSO solvent were included onto an intermediate plate to further dilute the compound stocks to complete the 9-pt dose curve (final top concentration of 10 μM). 10 μL per well of 5 mM estradiol-d2 (1000×) (Cayman; item no.: 9002846) (5 μM final concentration) dissolved in DMSO was seeded into the appropriate number of wells on the same source plate as the compounds. The Echo 650 (Labcyte) was used for compound dilutions and dispensing both the compounds and the substrate onto a dry 384-well black assay plate (Falcon/Corning; cat. no.:353962). Afterwards, cells were immediately counted and seeded onto the plate. Cells were cultured for expansion in EMEM (ATCC; cat. no.: 30-2003)+10% FBS (Hyclone; cat. no.: SH3007003)+1×PenStrep (Gibco; cat. no.: 15140-122). All media for stable cell line overexpressing HSD17013 also included […] zeocin (Invitrogen; cat. no.: 46-0509) for selection. To prepare cells for seeding into the 384-well assay plate, cells were trypsinized for 3 minutes in the incubator. The Trypsin-EDTA (0.25%) (Gibco; cat. no.: 25200056) was neutralized with EMEM complete culture medium warmed to 37° C. Cells were then centrifugated at 300×g for 5 minutes at room temperature. The cell pellet was resuspended in phenol red-free MEM (Gibco; cat. no.: 51200-038)+1% charcoal/dextran-treated FBS (Hyclone; cat. no.: SH3006803) and 1×PenStrep warmed to 37° C. Cells were then counted using the TC20 automated cell-counter (Bio-Rad) and disposable duel chamber counting slides (Bio-Rad; cat. no.: 1450016) for a cell density of 1.5E5 cells/mL to then seed into the assay plate at 7.5E3 cells/well with 50 μL of media per well. Prior to the 24-hour time point, a solution of 1% formic acid (10×) (Honeywell; cat. no.: 94318) in MEM phenol red-free MEM+1% charcoal/dextran-treated FBS and 1×PenStrep was made. ATPlite luminescent ATP detection reagent (PerkinElmer; cat. no.: 6016739) was prepared according to the manufacturer's instructions. A new 384-well Falcon plate (collection plate) was seeded with 2 μL per well of 10× formic acid and then 18 μL of cell supernatant was added onto the formic acid, resulting in a 20 μL per well solution of 0.1% formic acid (1×) in supernatant. The plate of collected supernatant was immediately frozen on dry ice before being stored at −80° C. The collection plate was shipped to Momentum Biotechnologies for analysis. The remaining supernatant in the assay plate was discarded and 25 μL of ATPlite reagent was added to each well. […]
In general, IC50 refers to the point on the concentration scale where inhibition reaches its midpoint. Low values mean greater potency in that assay, high ones weaker potency in that assay. For `COC(=O)Cn1c(-c2ccc(OC)cc2C2CC2)nc2sc3c(O)c(Cl)ccc3c2c1=O` [Example 45, methyl 2-(7-chloro-2-(2-cyclopropyl-4-methoxyphenyl)-8-hydroxy-4-oxobenzo[4,5]thieno[2,3-d]pyrimidin-3(4H)-yl)acetate], the IC50 lay within 0.1 to 0.5 µM. Take `Cn1ncc2cc(-c3nc4sc5c(O)c(Cl)ccc5c4c(=O)n3Cc3cnc(C(F)(F)F)nc3)c(C3CC3)cc21` [Example 182]: the half-inhibitory concentration (IC50) was under 0.1 µM.

Molecule `O=c1c2c(nc(-c3cc(F)c(F)cc3C3CC3)n1Cc1cc(Br)no1)sc1c(O)c(Cl)ccc12` [Example 165] came in with an IC50 of under 0.1 µM. Take `O=c1c2c(nc(-c3cnc(C(F)(F)F)cc3C3CC3)n1Cc1ccc(C(F)(F)F)nc1)sc1c(O)c(Cl)ccc12` [Example 179]: the IC50 was under 0.1 µM.

Turning to `COc1cc(C2CC2)c(-c2nc3sc4c(O)c(Cl)ccc4c3c(=O)n2Cc2cnco2)cc1C1CCCC1` [Example 109, 7-chloro-2-(5-cyclopentyl-2-cyclopropyl-4-methoxyphenyl)-8-hydroxy-3-(oxazol-5-ylmethyl)benzo[4,5]thieno[2,3-d]pyrimidin-4(3H)-one], the IC50 lay in the range of 0.5 to 1 µM. As for `COc1ccc(-c2nc3sc4c(O)c(Cl)ccc4c3c(=O)n2Cc2cc(C(F)F)no2)c(C2CC2)c1` [Example 199], the IC50 was under 0.1 µM.

`COc1ccc(-c2nc3sc4c(O)c(Cl)ccc4c3c(=O)n2Cc2cnc(C(F)(F)F)s2)c(C2CC2)c1` [Example 198] yielded an IC50 of under 0.1 µM. The figure for `O=c1c2c(nc(-c3cc(F)c(F)cc3C3CC3)n1Cc1cnc(C(F)(F)F)nc1)sc1c(O)c(F)ccc12` [Example 183] is under 0.1 µM; for `COc1ccc(-c2nc3sc4c(O)c(Cl)ccc4c3c(=O)n2Cc2cnc(C(C)C)s2)c(C2CC2)c1` [Example 196] it is under 0.1 µM; for `COc1ccc(-c2nc3sc4c(O)c(Cl)ccc4c3c(=O)n2Cc2ccnc(OC)c2)c(C2CC2)c1` [Example 156] it is under 0.1 µM. `COc1ccc(-c2nc3sc4c(O)c(Cl)cc(F)c4c3c(=O)n2Cc2cnco2)c(C2CC2)c1` [Example 218, 7-chloro-2-(2-cyclopropyl-4-methoxyphenyl)-5-fluoro-8-hydroxy-3-(oxazol-5-ylmethyl)benzo[4,5]thieno[2,3-d]pyrimidin-4(3H)-one] had a half-inhibitory concentration (IC50) of under 0.1 µM. In turn, `COc1ccc(-c2nc3sc4c(O)c(Cl)ccc4c3c(=O)n2Cc2cnco2)c(C2CCCC2)c1` [Example 121] yielded an IC50 of 0.1 to 0.5 µM. Turning to `COc1cc(C2CC2)c(-c2nc3sc4c(O)c(Cl)ccc4c3c(=O)n2Cc2cnco2)cc1C` [Example 108], the IC50 was under 0.1 µM. As for `COc1ccc(-c2nc3sc4c(OC(C)=O)c(Cl)ccc4c3c(=O)n2Cc2cnco2)c(C2CC2)c1` [Example 27, 7-chloro-2-(2-cyclopropyl-4-methoxyphenyl)-3-(oxazol-5-ylmethyl)-4-oxo-3,4-dihydrobenzo[4,5]thieno[2,3-d]pyrimidin-8-yl acetate], the IC50 was under 0.1 µM. `COc1ccc(-c2nc3sc4c(O)c(C=O)ccc4c3c(=O)n2Cc2cnco2)c(C2CC2)c1` [Example 31, 2-(2-cyclopropyl-4-methoxyphenyl)-8-hydroxy-3-(oxazol-5-ylmethyl)-4-oxo-3,4-dihydrobenzo[4,5]thieno[2,3-d]pyrimidine-7-carbaldehyde] showed an IC50 of 1 to 100 µM. `COc1ccc(-c2nc3sc4c(O)c(Cl)ccc4c3c(=O)n2Cc2ccnc(C(F)(F)F)c2)c(C2CC2)c1` [Example 155] yielded an IC50 of under 0.1 µM. As to `COc1ccc(-c2nc3sc4c(O)c(Cl)ccc4c3c(=O)n2Cc2cnco2)c(C2CC2)n1` [Example 93], the IC50 is under 0.1 µM.

The molecule `COc1ccc(-c2nc3sc4c(O)c(Cl)ccc4c3c(=O)n2Cc2cncn2C)c(C2CC2)c1` [Example 193] gave an IC50 of under 0.1 µM. Consider `COc1ccc(-c2nc3sc4c(O)c(Cl)cc(C)c4c3c(=O)n2Cc2cnco2)c(C2CC2)c1` [Example 221], for which the IC50 fell in the range of 0.1 to 0.5 µM. In the case of `COc1ccc(-c2nc3sc4c(O)c(Cl)ccc4c3c(=O)n2Cc2cnco2)c(C(C)(C)C)c1` [Example 128], the IC50 was 0.5 to 1 µM. Molecule `COc1ccc(-c2nc3sc4c(O)c(Cl)ccc4c3c(=O)n2CC2=NCCO2)c(C2CC2)c1` [Example 54, 7-chloro-2-(2-cyclopropyl-4-methoxyphenyl)-3-((4,5-dihydrooxazol-2-yl)methyl)-8-hydroxybenzo[4,5]thieno[2,3-d]pyrimidin-4(3H)-one] came in with an IC50 of 0.1 to 0.5 µM. On to `O=c1c2c(nc(-c3ccc(C(F)F)cc3C3CC3)n1Cc1cnc(C(F)(F)F)nc1)sc1c(O)c(Cl)ccc12` [Example 177], for which the IC50 was under 0.1 µM. Turning to `COc1ccc(-c2nc3sc4c(O)c(Cl)ccc4c3c(=O)n2Cc2ccno2)c(C2CC2)c1` [Example 47, 7-chloro-2-(2-cyclopropyl-4-methoxyphenyl)-8-hydroxy-3-(isoxazol-5-ylmethyl)benzo[4,5]thieno[2,3-d]pyrimidin-4(3H)-one], the IC50 is under 0.1 µM. On to `COCCn1cc(Cn2c(-c3ccc(OC)cc3C3CC3)nc3sc4c(O)c(Cl)ccc4c3c2=O)cn1` [Example 95], for which the IC50 is under 0.1 µM.

`O=c1c2c(nc(-c3cc(F)c(F)cc3C3CC3)n1Cc1cnccn1)sc1c(O)c(Cl)ccc12` [Example 207] returned an IC50 of under 0.1 µM.

Turning to `O=c1c2c(nc(-c3cc(F)c(F)cc3C3CC3)n1Cc1cnc(C(F)(F)F)nc1)sc1c(O)ccc(F)c12` [Example 184], the IC50 was under 0.1 µM.

In turn, `N#Cc1ccc(-c2nc3sc4c(O)c(Cl)ccc4c3c(=O)n2Cc2cc(C(F)(F)F)no2)c(C2CC2)c1` [Example 98] returned a half-maximal inhibitory concentration (IC50) of under 0.1 µM. Turning to `COc1ccc(-c2nc3sc4c(O)c(C(=O)O)ccc4c3c(=O)n2Cc2cnco2)c(C2CC2)c1` [Example 34, 2-(2-cyclopropyl-4-methoxyphenyl)-8-hydroxy-3-(oxazol-5-ylmethyl)-4-oxo-3,4-dihydrobenzo[4,5]thieno[2,3-d]pyrimidine-7-carboxylic acid], the IC50 is 1 to 100 µM. The figure for `COc1ccc(-c2nc3sc4c(O)c(-c5ccccc5)ccc4c3c(=O)n2Cc2cnco2)c(C2CC2)c1` [Example 35, 2-(2-cyclopropyl-4-methoxyphenyl)-8-hydroxy-3-(oxazol-5-ylmethyl)-7-phenylbenzo[4,5]thieno[2,3-d]pyrimidin-4(3H)-one] is 1 to 100 µM; for `COc1ccc(-c2nc3sc4c(O)c(Cl)ccc4c3c(=O)n2Cc2cnc(C)s2)c(C2CC2)c1` [Example 192] it is under 0.1 µM; for `O=c1c2c(nc(-c3cc(F)c(F)cc3C3CC3)n1Cc1cccnc1)sc1c(O)c(Cl)ccc12` [Example 163] it is under 0.1 µM. `Cn1cc(Cn2c(-c3ccc(C(F)F)cc3C3CC3)nc3sc4c(O)c(Cl)ccc4c3c2=O)ccc1=O` [Example 186] registered an IC50 of under 0.1 µM. `O=c1c2c(nc(-c3cc(F)c(F)cc3C3CC3)n1Cc1ccno1)sc1c(O)c(Cl)ccc12` [Example 62, 7-chloro-2-(2-cyclopropyl-4,5-difluorophenyl)-8-hydroxy-3-(isoxazol-5-ylmethyl)benzo[4,5]thieno[2,3-d]pyrimidin-4(3H)-one] showed an IC50 of under 0.1 µM.
